{"source": "patent US20050075398A1", "about": "“Neuroprotectin D1 protects against cellular apoptosis, stroke damage, alzheimer's disease and retinal diseases” (priority 2003, published 2005)", "key": {"[1]": {"tested_on": "NF-κB-DNA binding activity", "experiment": "EMSA of NF-κB in hippocampus after MCA-O", "assay_type": "in vivo, mouse", "conditions": "ipsilateral hippocampus; 1 h MCA-O, 2 h reperfusion; infused into third ventricle 3 h at 0.25 μl/h (NPD1 0.16 μg/ml)", "experimental": "Electrophoretic mobility-shift assay (EMSA) of human AP1, HIF-1α, NF-κBp50/p65, and STAT-1α. Nuclear protein extracts (NPXTs) were prepared from one to three 3.5 cm-diameter wells of HN cells and quantitated. NPXTs (5 μg) derived from HN cells were incubated with[γ-^32P]-ATP (˜3000 Ci/mmol)-end-labeled AP1, HIF-1α, NF-κκBp50/p65, or STAT-1α consensus and mutant oligonucleotides in 5-μl volumes, reacted for 30 min on ice, analyzed on 5% or 10% acrylamide/90 mM Tris-borate pH 8.4, 1 mM EDTA (TBE) gels, dried onto 2-mm Whatman filter paper at 80° C. for 2 h, and phosphorimaged using a Typhoon Variable Mode Imager (Amersham Pharmacia Biotech, Piscataway, N.J. ).\nFIGS. 7A, 7B, and 7C show mouse hippocampus after 1 h MCA-O was followed by 2 h reperfusion, where either vehicle, DHA, or 10,17S-docosatriene (NPD1) (0.16 μg/ml) was infused into the third ventricle for 3 h at 0.25 μl/h. […] NF-κB was increased over two fold in the ipsilateral hippocampus after MCA-O, and the infusion of either DHA or 10,17S-docosatriene (NPD1) inhibited ischemia-reperfusion-induced NF-κB activation by 28% and 48%, respectively (FIG. 7A)."}, "[2]": {"tested_on": "Bik gene expression", "experiment": "HGU133 GeneChip DNA array in HN cells: Bik", "assay_type": "cell-based, human", "conditions": "Aβ42 25 μM, DHA 50 nM or NPD1 50 nM, 18 h, nsc = no significant change", "text": "RNA Isolation and Spectral Quality. Brain tissues were rapidly processed, and total RNA was extracted using Trizol reagent (Invitrogen, Carlsbad, Calif.). Total RNA quality and abundance were profiled using RNA Nano LabChips (Caliper Technologies, Mountainview, Calif.; Agilent Technologies, Palo Alto, Calif.).\nProbe Synthesis and GeneChip Hybridization. Biotinylated antisense cRNAs were synthesized from cDNA using the Superscript Choice System (Invitrogen) and Enzo Biorray High Yield RNA Transcript Labeling kits according to the manufacturer's protocols (Affymetrix) and as described in Colangelo, V., Schurr, J., Ball, M. J., Pelaez, R. P., Bazan, N. G., Lukiw, W. J. (2002) J. Neurosci. Res., 70: 462-473; and Lukiw, W. J. (2004) Neurochem. Research, 29: 1287-1297. Probes were hybridized against HU133Av2 GeneChip DNA arrays that interrogate approximately 33,000 full-length […] genes and expressed sequence tag (EST) clusters. […]\nGeneChip Data and Statistical Analysis. […] Volcano plots were plotted representing total gene expression patterns as a function of fold-change as compared to expression patterns of age-matched controls as plotted against p, as calculated by an analysis of variance (ANOVA). […] Statistical significance was analyzed using a two-way factorial analysis of variance (p, ANOVA; Statistical Analysis System; SAS Institute, Cary, N.C. )."}, "[3]": {"tested_on": "ARPE-19 cells", "experiment": "DNA fragmentation by differential sedimentation after 3H-thymidine labeling", "assay_type": "cell-based, human", "conditions": "50 nM; TNF-α 10 ng and H2O2 800 μM for 6-8 h", "experimental": "DNA fragmentation assay: Cells (80% confluent) growing in DMEM (10% FBS) in 6-well plates were labeled with 1 μCi ^3H-thymidine per well for 24 h at 37° C. The day-old medium was replaced to remove the unincorporated ^3H-thymidine. Cells were then serum-starved for 1 h and treated with TNFα plus H2O2 for 6-8 h. Cells were harvested, centrifuged at 200×g for 10 min at 4° C. An aliquot of the supernatant was precipitated with 25% TCA, and radioactivity was measured. This represents the amount of ^3H-thymidine released during the oxidative stress induced by TNFα plus H2O2 The cell pellet was solubilized in lysis buffer (0.2% Triton X-100 in 10 mM Tris/EDTA). The intact DNA and fragmented DNA were separated by centrifugation at 13,000×g for 10 min at 4° C. Fragmented DNA was precipitated from the supernatant with 25% TCA. The pellets were resuspended in 1% SDS and radioactivity was measured. This represents the intact DNA in the cells. The amount of DNA fragmentation is expressed as percentage of fragmented DNA over the control, as described in Kim, H. Y., Akbar, M., Lau, A. & Edsall, L. (2000) J. Biol. Chem. 275:35215-35223.\nThese observations indicate that oxidative stress triggered DNA fragmentation and RPE apoptosis, and that the increase in NPD1 inhibited RPE cell death. […] DNA fragmentation was evaluated after TCA precipitation and expressed as percentage over intact DNA. […]"}}, "data": [{"molecule": "CC/C=C\\C[C@H](O)\\C=C/C=C/C=C/[C@H](O)C/C=C\\C/C=C\\CCC(=O)O", "note": "[NPD1, 10,17S-docosatriene]", "values": [{"measurement": "inhibition of ischemia-reperfusion-induced NF-κB activation", "setting": "[1]", "value": 48, "unit": "%"}, {"measurement": "Bik gene expression, fold change over untreated controls", "setting": "[2]", "value": "nsc"}, {"measurement": "effect on DNA fragmentation (3H-thymidine)", "setting": "[3]", "value": "inhibited"}]}]}
